# According to patent US9359409B2, “Antimicrobial peptides, compositions comprising the same and uses thereof” (priority 2012, dated 2016):
# Where two headings read alike, the source gives them in different places. Ends that are not written are not given here.
# Assays:
# [1] = system: A. junii; conditions: A. junii M9013, resistance gene oxa-51 + imp
# Protocol: (§1) Subsequently, an analysis of a panel of clinical isolates including strains with different resistance mechanisms against conventional antibiotics was carried out, all of which are of clinical relevance. […] In Table 3 the results for a panel of Gram negative bacteria are shown, and in Table 4 for a panel of […] bacteria. In these tables the detected gene/s responsible for the resistance against antibiotics for each strain, are included.
# (§2) Antimicrobial activity was analyzed by means of the determination of the MIC (minimum inhibitory concentration) by the microdilution technique. The technique was carried out in the standard fashion according to (CLSI M07-A9 Vol. 32 No 2. January 2012). The peptide concentration range used was from 0.5 μg/mL to 512 μg/mL in two-fold serial dilutions. The used medium was MH Difco broth supplemented with cations, at a final concentration of Ca^++20-25 mg/L and Mg^++10-12.5 mg/L. The working inoculum used corresponds to a 1/100 dilution of a bacterial suspension equivalent to 0.5 in the Mc Farland scale.
# [2] = system: E. gallinarum
# Protocol: as §1, §2
substance,measurement,setting,value
"ILRWPWWPWRRK-NH2 [Omiganan, ILRWPWWPWRRK, reference compound]",MIC,[1],64 µg/mL
same,MIC,"[2]; E. gallinarum M2685, resistance gene vanC1 + vanA",16 µg/mL
same,MIC,"[2]; E. gallinarum M2723, resistance gene vanC1 + vanA",16 µg/mL
